Data set [1] in a line: Solubility improvement of NZ-105 by pulverizing or by formulating other polymers. It counts as physicochemical. As to conditions: pulverizing crystals. An excerpt:
This entailed larger size tablets. […] This also entailed larger size tablets.

For data set [2] the following is noted: background; cited from earlier work.
For data set [3] the following is noted: background; cited from earlier work. The source holds these as a separate data set.

Structures can show the parent of a compound that is named as a salt.

Regarding `CC1=C(C(=O)OCCN(Cc2ccccc2)c2ccccc2)C(c2cccc([N+](=O)[O-])c2)C(P2(=O)OCC(C)(C)CO2)=C(C)N1` (stereo not drawn) [NZ-105, 5-(5,5-dimethyl-1,3,2-dioxaphosphorinane-2-yl)-1,4-dihydro-2,6-dimethyl-4-(3-nitrophenyl)-3-pyridine carboxylic acid 2-(phenyl(phenylmethyl)amino) ethyl ester P-oxide hydrochlorideethanol], the “Improvement in solubility (in words)” value in data set [1] is recorded as “did not result in an improvement in the solubility of NZ-105 of a degree to promote its bioavailability”.
Turning to `COC(=O)C1=C(C)NC(C)=C(C(=O)OCCN(C)Cc2ccccc2)C1c1cccc([N+](=O)[O-])c1` (stereo not drawn) [Nicardipine], the “Absorption through gastrointestinal tracts (in words)” value in data set [2] was “can not be absorbed through gastrointestinal tracts in a sufficient amount”. Further, the “Solubility in water (in words)” value in data set [3] is “very poor solubility in water”.

The values are drawn from patent US4983593A, “Pharmaceutical composition of dihydropyridine compound” (priority 1988, dated 1991).
